Consider ten compounds from patent US20160151503A1, “COMPOSITIONS AND PREPARATION METHODS OF LOW MELTING IONIC SALTS OF POORLY-WATER SOLUBLE DRUGS” (MW ENCAP LIMITED, priority 2013, published 2016).

Structures can show the parent of a compound that is named as a salt.

Series [1] can be described thus: Drug solubility in exemplar lipid formulations (SEDDS) and individual excipients.
Description: Where lipid based formulations have been employed, formulations were made up in glass vials by weighing the appropriate quantities of excipient directly into the vial, followed by mixing
In some cases the solubility of the low melting ionic salt in individual excipients was also measured.
Drug solubility in each formulation was assessed in one of two ways. Firstly, quantitatively, by incubating formulations with excess drug at 37 degrees and taking samples over time. These samples were centrifuged to pellet solid material and the drug concentration in the formulation assessed by HPLC.
Series [2] is described as follows: In vitro dispersion and digestion of cinnarizine decylsulfate SEDDS solution in simulated intestinal fluid. Type of series: in vitro ADME. The note with it: after in vitro dispersion or digestion of SEDDS solution in SIF.
A short description of series [3]: Equilibrium solubility in colloids formed by in vitro digestion of blank SEDDS in simulated intestinal fluid. Type of series: physicochemical. Particulars: colloids from 60 min digestion of blank LC2 SEDDS (1 g in 39 mL SIF), pH 6.5, 37° C. On the procedure:
In this experiment blank SEDDS formulation (1 g) was dispersed in 39 mL of simulated intestinal fluid. (SIF) (2 mM Tris-maleate, 1.4 mM CaCl2.H2O, 150 mM NaCl, 3 mM NaTDC, 0.75 mM PC, pH 6.5, 37° C.) and pancreatic enzymes added to stimulate digestion. The experiment was conducted at 37° C. and allowed to continue for 60 mins. […] From the data in Table 5.3 below it is apparent that synthesis of the IL increases drug affinity for intestinal colloidal phases and therefore increases solubilisation in the GI tract—consistent with the increases in exposure seen in FIG. 3

Series [4] can be described thus: Itraconazole plasma pharmacokinetics after oral administration of comparative formulations to rats. Type of series: in vivo. Particulars: same equivalent dose of ITZ FB, solution in SEDDS. Here is the method:
Note that the very low solubility of ITZ free base precludes formulation as a lipid based formulation. It is only via isolation as the IL that this possibility is realised since the solubility of the ITZ IL in lipid formulations is very much higher. All were dosed at the same dose (20 mg/kg).
The isolation of ITZ as the docusate IL increased drug solubility in the SEDDS formulation and allowed administration as a Solution in the SEDDS formulation. […] ITZ FB was not sufficiently soluble in the SEDDS formulation to allow administration as a solution in the SEDDS at any reasonable dose and was therefore dosed as a suspension in the SEDDS formulation and also as an aqueous suspension. The same dose was administered as the commercial Sporanox formulation of ITZ FB
It is apparent that the ITZ IL formulation allowed administration of a much higher ITZ dose as a solution in a lipid based formulation and that this in turn led to much higher plasma levels than the equivalent suspension formulation of the free base, or the commercial Sporanox formulation.

[5] abbreviates: SEDDS: 15% soybean oil, 15% Maisine 35-1, 60% Cremophor EL, 10% EtOH.
[6] abbreviates: Table 8 Meclofenamic Acid, MC SEDDS.
The mark [7] stands for this setting: Table 7 Tolfenamic Acid, MC SEDDS.

`C(=C/c1ccccc1)/CN1CCN(C(c2ccccc2)c2ccccc2)CC1` [Cinnadzine free base, Cinnarizine, reference compound]: in series [1] (setting [5]), the “cinnarizine solubility in the lipid vehicle” value was “approximately 44 mg/g”.
On to `C(=C\c1ccccc1)/CN1CCN(C(c2ccccc2)c2ccccc2)CC1` [Cinnarizine-decylsulfate, Cinnarizine Decylsulfate], for which the “miscibility with the SEDDS formulation” value in series [1] (setting [5]) is on record as “essentially miscible”. Besides, the “incorporated drug remaining solubilized in an aqueous phase” value in series [2] was “more than 95%”.
As to `COc1ccc2c(c1)[C@]13CCCC[C@@H]1[C@H](C2)N(C)CC3` [Dextromethorphan, reference compound], in series [1] (Table 5 Dextromethorphan and Metformin, MC SEDDS), the “Solubility in MC SEDDS (mg/g) Free base equiv.” value is less than 50 mg/g.
For the compound `CCC(C)n1ncn(-c2ccc(N3CCN(c4ccc(OCC5COC(Cn6cncn6)(c6ccc(Cl)cc6Cl)O5)cc4)CC3)cc2)c1=O` (stereo not shown) [Itraconazole free base, Itraconazole, reference compound], the “Solubility in simulated intestinal fluid plus lipid digestion products” value in series [3] (listed as ITZ FB) is less than 47 µg/mL.
With `CCC(C)n1ncn(-c2ccc(N3CCN(c4ccc(OCC5COC(Cn6cncn6)(c6ccc(Cl)cc6Cl)O5)cc4)CC3)cc2)c1=O` (stereo not shown) [Itraconazole- diocytlsulfosuccinate, Itraconazole Dioctylsulfosuccinate (Docusate)], the “Solubility in simulated intestinal fluid plus lipid digestion products” value in series [3] (listed as ITZ-docusate IL) is 1720 ± 150 µg/mL. For the same compound, in series [1] (LC2 SEDDS: 30% SBO, 30% Maisine, 30% CrEL, 10% EtOH), the “Solubility in LC^2 SEDDS (mg/g) itraconazole equiv.” value was 159.8 mg/g. Besides, the “plasma levels compared to the commercial formulation” value in series [4] is approximately 2.5 fold.
As for `Cc1ccc(Cl)c(Nc2ccccc2C(=O)O)c1Cl` [Meclofenamic acid, 1- hexadecyl-3- methylpyridinium salt] [Meclofenamic Acid, 1-hexadecyl-3-methylpyridinium Salt], the “Solubility in MC^2 SEDDS (mg/g) Free base equiv.” value in series [1] (setting [6]) is listed as more than 240 mg/g.
On the same count and under the same terms, then `Cc1ccc(Cl)c(Nc2ccccc2C(=O)O)c1Cl` [Meclofenamic acid, N-decyl-N,N- dimethyldodecylammonium salt] [Meclofenamic Acid, N-decyl-N,N-dimethyldodecylammonium Salt], with more than 240 mg/g.
Regarding `Cc1c(Cl)cccc1Nc1ccccc1C(=O)O` [Tolfenamic acid dodecylammonium salt, Tolfenamic Acid, Dodecylammonium Salt], the “Solubility in MC^2 SEDDS (mg/g) Free base equiv.” value in series [1] (setting [7]) was more than 50 mg/g.
Same read-out and setting: then `Cc1c(Cl)cccc1Nc1ccccc1C(=O)O` [Tolfenamic acid, N-butyl- N,N-dimethylbutyl-N- dodecylammoni] [Tolfenamic Acid, N-butyl-N,N-dimethylbutyl-N-dodecylammonium Salt], with more than 200 mg/g; and `Cc1c(Cl)cccc1Nc1ccccc1C(=O)O` [Tolfenamic acid, N-decyl-N,N- dimethyldodecylammonium salt] [Tolfenamic Acid, N-decyl-N,N-dimethyldodecylammonium Salt], with more than 200 mg/g.
